The values below come from publication PMC4948010 (ACS Medicinal Chemistry Letters, 2016).

Broadly, the microsomal CLint is the capacity of the preparation to metabolise the compound, expressed as a volume cleared per time. A higher microsomal CLint goes with rapid turnover.

One data set has as its target T1, human recombinant GK (Homo sapiens, UniProt P35557).
T1 sequence (P35557 1-465): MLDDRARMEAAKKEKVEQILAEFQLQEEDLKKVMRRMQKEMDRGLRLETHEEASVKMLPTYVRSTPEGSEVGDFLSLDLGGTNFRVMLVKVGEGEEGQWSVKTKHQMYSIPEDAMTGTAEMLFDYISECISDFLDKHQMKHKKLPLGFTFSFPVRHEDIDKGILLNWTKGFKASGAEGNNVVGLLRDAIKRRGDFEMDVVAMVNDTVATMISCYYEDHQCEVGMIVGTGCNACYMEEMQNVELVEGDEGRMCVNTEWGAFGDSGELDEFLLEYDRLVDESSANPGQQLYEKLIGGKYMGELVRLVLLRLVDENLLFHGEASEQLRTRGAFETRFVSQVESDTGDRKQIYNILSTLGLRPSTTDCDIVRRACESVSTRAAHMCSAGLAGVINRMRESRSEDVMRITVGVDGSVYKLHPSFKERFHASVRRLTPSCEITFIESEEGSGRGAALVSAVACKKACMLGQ
The experiment in a line: Glucokinase EC50 assay. Type of data set: biochemical. Conditions: compared with the other acyclic C5 analogues of Table 1.

Data set [1] in a line: Metabolic identification studies. Type of data set: in vitro ADME.
In a further data set the test system is male Sprague–Dawley rats. The experiment in a line: Fed blood glucose test in male Sprague-Dawley rats. The class given is in vivo, rat. Conditions: doses 3, 10, 30 and 100 mg/kg oral.
A short description of data set [2]: Intrinsic clearance in rat liver microsomes. Type of data set: in vitro ADME. Background: Microsomes from liver hold many membrane-bound enzymes, among them those of drug oxidation.
The test system of a further data set is ob/ob mice. The experiment in a line: Oral glucose tolerance test in ob/ob mice. The following applies: doses 3, 10 and 30 mg/kg oral. The class given is in vivo, mouse.

For the molecule `CNC(=O)Nc1cc(Oc2cncc(C)c2)c(C(C)CO)cn1` (centres unmarked) [Compound 5], the loss in potency entry on human recombinant GK is reported as “approximately 5 fold”.

With `CNC(=O)Nc1cc(Oc2cncc(OC)c2)c([C@H]2CCCOC2)cn1` [Compound 21], the “site of oxidation (metabolic identification)” value in data set [1] is reported as “THP ring as one site of oxidation”. The blood glucose levels entry with male Sprague–Dawley rats is “dose-proportional decrease”.

In data set [2], `CNC(=O)Nc1cc(Oc2cncc(C)c2)c([C@H]2C[C@@H](O)C2)cn1` [Compound 7] gave a microsomal CLint of 24 µL/min/mg. Also, in the data set on ob/ob mice, the “blood glucose levels during an oral glucose tolerance test” value is reported as “dose-proportional decrease”.
